No end group written: not given here.
Tests used:
OprM outer loops = test: rabbit immunization with KLH-conjugated OprM outer loop peptides, sera screened for immune reaction; type: in vivo; settings: NZW rabbits, 500 μg per injection subcutaneously on days 0, 21, 42, 63, 84, 105; sera screened for immune reaction to OprM outer loops
Description: Polyclonal antibodies were produced using each of the OprM outer loops (with surrounding amino acid residues) conjugated to KLH as immunogens. Rabbits were screened prior to antigen injection for background antibodies that recognize the OprM outer loop immunogens to be used (i.e., SEQ ID NOS:3 and 4). Pre-immune rabbit sera was assayed by ELISA for antibodies to the immunogen.
Eight NZW rabbits were immunized on days 0, 21, 42, 63, 84 and 105 subcutaneously with either KLH-conjugated OprM outer loop 1 (SEQ ID NO:3) or outer loop 2 (SEQ ID NO:4) peptides (500 μg per injection). The Day 0 injection was formulated with Titermax while all subsequent injections were formulated with Freund's incomplete adjuvant. The rabbits were bled on days 52 (5 ml serum obtained), 73 (20 ml serum obtained), 94 (20 ml serum obtained), 115 (20 ml serum obtained) and 118 (50 ml serum obtained).

[1] = target: T1, OprM outer loop 1 (SEQ ID NO:3) (Pseudomonas aeruginosa, UniProt Q51487); test: ELISA of immunized rabbit sera, antigen outer loop 1 peptide; type: binding; settings: antigen SEQ ID NO:3; four rabbits per immunogen; FIG. 1 and 2
T1 construct: made in house; host or cells: chemical peptide synthesis
T1 sequence (Q51487 whole entry, looked up): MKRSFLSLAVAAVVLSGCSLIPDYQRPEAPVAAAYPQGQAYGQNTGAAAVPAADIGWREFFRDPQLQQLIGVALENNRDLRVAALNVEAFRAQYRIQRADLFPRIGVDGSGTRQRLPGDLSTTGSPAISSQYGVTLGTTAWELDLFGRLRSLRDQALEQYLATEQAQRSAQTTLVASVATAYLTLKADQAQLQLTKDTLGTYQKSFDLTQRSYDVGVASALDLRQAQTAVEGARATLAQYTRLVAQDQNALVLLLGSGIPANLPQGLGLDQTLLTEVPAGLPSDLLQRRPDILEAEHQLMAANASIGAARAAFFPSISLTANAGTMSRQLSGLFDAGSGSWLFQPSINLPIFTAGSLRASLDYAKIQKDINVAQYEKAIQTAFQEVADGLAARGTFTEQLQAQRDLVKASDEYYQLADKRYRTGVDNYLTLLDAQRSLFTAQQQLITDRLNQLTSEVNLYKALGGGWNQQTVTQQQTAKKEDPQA
Description: (§1) Sera was assayed by ELISA to measure the amount of anti-OprM antibodies that were induced by the immunization. Purified peptide from either outer loop 1 or outer loop 2 was plated each well of a 96-well plate. A solution of PBS+3% BSA was used for non-specific blocking and sample/control/secondary antibody dilutions. The sample serum was run against a negative control (normal sera) and a positive control (anti-ovalbumin). The signal was detected using HRP conjugated anti-rabbit secondary antibodies and ABTS peroxidase substrate system. The plates were read at a wavelength of 415 nm with a reference at 570 nm.

[2] = target: T2, OprM outer loop 2 (SEQ ID NO:4) (Pseudomonas aeruginosa, UniProt Q51487); test: ELISA of immunized rabbit sera, antigen outer loop 2 peptide; type: binding; settings: antigen SEQ ID NO:4; four rabbits per immunogen; FIG. 1 and 2
T2 construct: made in house; host or cells: chemical peptide synthesis
T2 sequence (Q51487 whole entry, looked up): T1 sequence (Q51487 whole entry, looked up)
Description: as §1

[3] = tested on: P. aeruginosa strain MSC06120; settings: multidrug resistant P. aeruginosa strain MSC06120; stated as normal values; cited from earlier work

Molecule | immune response in immunized rabbits (OprM outer loops) | antibodies in sera binding to peptide containing outer loop 1 (titer / cross-reactivity), ELISA [1] | antibodies in sera binding to peptide containing outer loop 2 (titer / cross-reactivity), ELISA [2] | growth inhibitory concentration [3] [µg/mL]
KLH-conjugated OprM outer loop 1 (SEQ ID NO:3): OprM outer loop 1 peptide with surrounding residues (SEQ ID NO:3), N-terminal CKK added, conjugated to keyhole limpet hemocyanin carrier (CKKRLPGDLSTTGSPA; also: conjugated to KLH carrier, site not given here; listed as Pseudomonas aeruginosa) | generated an immune response | high titer | 1 rabbit showed a small amount of cross-reactivity | 
outer loop 2 (SEQ ID NO:4): OprM outer loop 2 peptide with surrounding residues (SEQ ID NO:4), N-terminal CKK added, conjugated to keyhole limpet hemocyanin carrier (CKKSRQLSGLFDAGSG; also: conjugated to KLH carrier, site not given here; listed as Pseudomonas aeruginosa) | generated an immune response | 2 rabbits showed a small amount of cross-reactivity | high titer | 
NCC[C@H](O)C(=O)N[C@@H]1C[C@H](N)[C@@H](O[C@H]2O[C@H](CN)[C@@H](O)[C@H](O)[C@H]2O)[C@H](O)[C@H]1O[C@H]1O[C@H](CO)[C@@H](O)[C@H](N)[C@H]1O [amikacin] |  |  |  | 64
O=C(O)c1cn(C2CC2)c2cc(N3CCNCC3)c(F)cc2c1=O [ciprofloxacin] |  |  |  | > 256
